Consider one compound from paper PMC12801355, “Peptide Amphiphiles Hitchhike on Endogenous Biomolecules for Enhanced Cancer Imaging and Therapy” (Advanced Materials (Deerfield Beach, Fla.), 2025).

The structures appear in SMILES notation. Where a SMILES comes first, the peptide text is derived from it. The star is where a group is joined. Palmitoyl = CCCCCCCCCCCCCCCC(=O)*

Series [1] relates to HeLa human cervical cancer cells. Kind of series: Uptake of SA‐E by wild type or LDL‐R knockout cells. In kind it is cell-based. The following applies: Cy5 SA‐E 20 µM, 10% FBS DMEM. The procedure: For LDL‐R studies, 2 × 10^5 wild type or LDL‐R‐/‐ HeLa human cervical cancer cells were grown to near confluency in 96 well plates with black walls and flat glass bottom. Cy5 conjugated SA‐E (20 µM) was preincubated in DMEM containing 10% FBS for 30 min at 37 °C. Wells were aspirated, and 100 µL of the SA‐E containing DMEM was added. The plate was incubated for 30 min, as above. The wells were washed with sterile PBS, as above, media was added, and the plate was returned to the incubator for 1 h. Wells were aspirated, and nuclei were stained with Hoechst as above. Wells were aspirated, and 100 µL of phenol red free DMEM with 10% FBS was added to each well. Cells were then imaged for Cy5 conjugated SA‐E with a Zeiss Apotome 3 microscope at 20x and 63x objectives using Zen software.

Series [2] can be described thus: PA fluorescence in liver homogenates. The note with it: ICG conjugated, 0.1 to 10 µM spiked into mouse liver homogenate, IVIS. In kind it is in vitro ADME. The procedure:
Liver samples (6.2 g total weight) collected from healthy BALB/cJ mice were placed in a gentleMACS M Tube containing 2 mL of PBS. The M Tube was fitted with a 600 µm mesh strainer, and homogenization was performed using a gentleMACS Dissociator by running a one‐minute program at 1260 rotations per round (rpr) for five cycles. ICG conjugated SA‐E and SA‐K were then spiked into the liver homogenates in a 96‐well plate at final concentrations of 0, 0.1, 0.5, 2.0, 5.0, and 10 µM. Fluorescence signals from the homogenates were measured using an IVIS (PerkinElmer).

Another series relates to RG2 xenografts. Kind of series: Flow cytometry of mCherry expressing RG2 xenografts. The format is in vivo, mouse. The following applies: Cy5 SA‐E 50 nmol IV. The procedure: RG2‐mCherry cells (100 µL sterile DMEM, 0.5 × 10^7 cells mL^−1) were implanted subcutaneously in nude mice and allowed to grow to 0.5–1 cm. Mice were then injected intravenously with the Cy5 labeled SA‐E (100 µL, 0.5 mM). 2 days later, tumors were extracted, minced, and dissociated using 1 mg mL^−1 solution collagenase/dispase (Roche, 10269638001 and 11097113001) for 45 min at 37 °C. The solution was broken down with pipetting and filtered through a 70 µm filter. The single‐cell solution was suspended in sterile PBS (10 mM, pH 7.4) and then incubated with 1:50 dilution of AlexaFluor 488 Rat Anti‐Mouse CD45 antibody (BD Pharminogen, 567377) for 45 min at room temperature. Finally, the cells were pelleted and, washed and incubated with 5 µM Calcein Blue, AM (Invitrogen, C1429) for 20 min. The cells were then analyzed in BD FACSymphony in the DAPI channel (355 nm laser, 450/50 filter), FITC channel (488 nm laser, 515/30 filter), Cy3 channel (561 nm laser, 586/15 filter), and Cy5 channel (628 nm laser, 670/30 filter). Cells in culture were used to establish size and mCherry intensity. […] Finally, three experimental mice were analyzed in all channels using the gating established from the controls. Gating was performed in FlowJo software.

Series [3] in a line: Stability of PA nanostructures in plasma (fluorescence recovery). The format is in vitro ADME, human. The procedure: ICG or Cy5 conjugated PAs were dissolved in PBS (10 mM, pH 7.4) at a concentration of 1 or 100 µM, and 90 µL aliquots of these solutions were added to a 96 well plate (4 wells for each PA). Then, 10 µL of pooled human plasma was added to each well, and fluorescence spectra of ICG or Cy5 were recorded using a microplate reader (TECAN Spark 20 M) at different time points.

A further series relates to 4T1 tumor. As to the kind of experiment: Tumor accumulation, live IVIS imaging. The format is in vivo, mouse. Here is the method:
(§1) For tumor accumulation studies in subcutaneous (HCT‐116, A375, TRAMP‐C2, MC38, LLC1, RG2, PDX cell lines, wild type or SR‐B1 ‐/‐ TRAMP‐C2, and wild type or LDL‐R ‐/‐ HeLa), intradermal (A375), or fat pad (4T1 and MCF‐7) tumors, cells were implanted as described above. When the tumors reached a size around ≈0.3–1 cm, mice were injected intravenously with 100 µL of ICG conjugated PAs (in PBS, 0.5 mM) or free ICG (in PBS, 0.5 mM). After probe injections, mice were imaged using the IVIS Spectrum (PerkinElmer) with excitation and emission wavelengths of 745 and 820 nm, respectively, at the specified time points. Living Image (PerkinElmer) software was used for all analyses. For MMTV mice experiments, mice were injected intravenously weekly with SA‐E (100 µL PBS, 0.5 mM) between 71 and 85 days of age and imaged 2 days later in the IVIS. […] SA‐E was injected intravenously (100 µL PBS, 0.5 mM), 2 days later the intestinal tissue was harvested, washed, and analyzed in the IVIS for ICG.

Series [4] concerns xenograft, syngeneic, transgenic and PDX tumor models. Kind of series: Tumor accumulation in a broad range of tumor models. The format is in vivo, mouse. The following applies: 2 days after 50 nmol IV. The procedure: as §1
Series [5] is described as follows: Fluorescence polarization of PA nanostructures. The format is physicochemical. The note with it: 10 mol% ICG conjugated PA (20 µM) with unconjugated PA, 200 µM total, PBS; mean ± SEM, 3 wells. The procedure:
ICG (10 mol%) containing PA micelles were prepared by mixing ICG‐conjugated PAs with unconjugated or MMAE‐conjugated PAs to achieve a final concentration of 20 µM ICG‐conjugated PAs and 200 µM of total PAs. Aliquots of 100 µL were added to a 96‐well plate (3 wells for each PA). Fluorescence polarization measurements were performed using a microplate reader (TECAN Spark 20 M). The corrected parallel intensity (I par) and perpendicular intensity (Iper) were used to calculate the fluorescence anisotropy (r) using the following equation: r = […].
(Polarisation of emitted light reports the rotation of a fluorescent probe.)

A short description of series [6]: Blood circulation in mice. In kind it is in vivo, mouse. The following applies: wild type mice, 50 nmol IV. Here is the method: For blood circulation experiments, Balb/c mice were injected with 100 µL of ICG conjugated PAs or No‐SA, or free ICG (0.5 mM). Then, blood was drawn via the saphenous vein or retro‐orbitally at different time points (immediately after injection to 1 day). […] Blood from wild type mice was collected to prepare calibration curves for each probe. To each 18 µL aliquot of blood, 2 µL of probe stock solution (0.5 mM) was added and incubated at 37 °C for 1 h. The spiked samples were then serially diluted in blood between 50 and 0.1 µM. For fluorescence measurement, 2 µL of each diluted sample was further diluted into 98 µL of PBS, and ICG fluorescence was measured using a TECAN plate reader.

Where [7] appears, read: 4T1 tumor‐bearing mice, 50 nmol IV.

In the case of `CCCCCCCCCCCCCCCC(=O)NCC(=O)NCC(=O)NCC(=O)N[C@@H](Cc1c[nH]cn1)C(=O)N[C@@H](C)C(=O)N[C@@H](C)C(=O)N[C@@H](CC(N)=O)C(=O)NCC(=O)N[C@@H](CCC(=O)O)C(=O)N[C@@H](CCC(=O)O)C(=O)N[C@@H](CS)C(=O)N[C@@H](CCC(=O)O)C(=O)O` [SA‐E] (Palmitoyl-GGGHAANGEECE-OH), the “uptake in LDL‐R‐/‐ cells compared to wild type” value in series [1] is listed as “did not observe any significant change”. For the same compound, the “fluorescence in liver homogenates, SA‐E versus SA‐K (disassembly)” value in series [2] is “almost identical fluorescence intensity”. In the series with RG2 xenografts (2 days), the “CD45 and mCherry negative cells (tumor stroma) containing Cy5” value is listed as 35%–40; the “CD45 positive only (white blood cells) containing Cy5” value is 35%–40; the “enrichment in cancer cells compared to other cells in the tumor” value is listed as “approximately two‐fold”. In the series on RG2 xenografts (tumors harvested 2 days later, three mice), the “mCherry expressing cancer cells containing Cy5” value is “≈ 70%”. The “increase in Cy5 fluorescence in plasma relative to SA‐K” value in series [3] (Cy5 conjugated PAs 100 µM, 10% human plasma, 1 h) is “≈ 10 fold”. The “increase in ICG fluorescence in plasma relative to SA‐K (micelle disassembly)” value in series [3] (ICG conjugated PAs 1 or 100 µM in PBS pH 7.4 with 10% pooled human plasma, over 2 h, plate reader, larger and more rapid than SA‐K) is recorded as “approximately three‐fold”. In the series on 4T1 tumor (setting [7]), the “day of 50% decrease in the tumor signal” value worked out at 3 days, the “retention of tumor signal” value was “still detectable levels even 2 weeks after injection”, the “time at which background signal was mostly cleared” value is 2 days and the “total tumor accumulation relative to No‐SA” value was “≈ 1.6 fold”. For the same compound, the “time of maximum tumor fluorescence” value in the series on 4T1 tumor (4T1 tumor‐bearing mice, ICG conjugated, 50 nmol IV) is given as 11 h. In addition, in the series with 4T1 tumor (biodistribution studies, summary in introduction), the “retention in the tumor” value is “more than 2 weeks”. Besides, the “maximum TBR” value with 4T1 tumor (days 2 to 8, 50 nmol IV) is recorded as 5–6. In addition, in series [4], the “tumor accumulation across models” value was “highly specific tumor accumulation in all 13 tumor models”. For the same compound, the “fluorescence anisotropy of ICG in micelles” value in series [5] was 0.123 ± 0.006. The “AUC of blood circulation plot relative to SA‐K” value in series [6] stood at 2.1 fold.
